Results as given in patent publication US20220041647A1, “ESTRA-1,3,5(10)-TRIENE COMPOUNDS CONDENSED IN POSITION 16(17) WITH A PYRAZOLE RING AS INHIBITORS OF 17-HSD1” (FORENDO PHARMA LTD, priority 2018, published 2022).

What was measured:
Assay type in all cases: biochemical
[1] = target: T1, recombinant human 17β-HSD1 (Homo sapiens, UniProt P14061); test: Inhibition of recombinant human 17β-HSD1 (estrone to estradiol conversion, HPLC/radioactivity); conditions: compound 100 nM; 30 nM estrone, 1 mM NADPH, 30 min RT
T1 construct: made in house; host or cells: Sd9 (Sf9) insect cells, baculovirus (Bac to Bac Expression System)
T1 sequence (P14061 1-328): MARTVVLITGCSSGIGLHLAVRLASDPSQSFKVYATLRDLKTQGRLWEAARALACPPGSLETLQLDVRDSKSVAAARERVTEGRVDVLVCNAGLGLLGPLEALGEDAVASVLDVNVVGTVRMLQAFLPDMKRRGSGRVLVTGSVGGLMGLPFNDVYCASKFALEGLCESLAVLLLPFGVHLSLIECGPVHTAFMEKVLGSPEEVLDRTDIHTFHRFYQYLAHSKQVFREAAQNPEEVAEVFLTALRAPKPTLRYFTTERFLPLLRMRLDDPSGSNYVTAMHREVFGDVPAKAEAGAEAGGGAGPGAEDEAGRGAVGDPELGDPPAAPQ
Experimental: 17β-HSD1 production and isolation: Recombinant baculovirus was generated by the “Bac to Bac Expression System” (Invitrogen). Recombinant bacmid was transfected to Sd9 insect cells using “Cellfectin Reagent” (Invitrogen). 60 h later cells were harvested; the microsomal fraction was isolated as described by Puranen, T. J., Poutanen, M. H., Peltoketo, H. E., Vihko, P. T. and Vihko, R. K. (1994) Site-directed mutagenesis of the putative active site of human 17 β-hydroxysteroid dehydrogenase type 1. Biochem. J. 304: 289-293. Aliquots were stored frozen until determination of enzymatic activity.
Assay—Inhibition of recombinant human 17β-HSD1: Recombinant protein (1 μg/ml) was incubated in 20 mM KH2PO4 pH 7.4 with 30 nM estrone (including 800 000 cpm/ml of ^3H-estrone) and 1 mM NADPH for 30 min at RT, in the presence of the potential inhibitor at concentrations 1 μM or 0.1 μM. Inhibitor stock solutions were prepared in DMSO. Final concentration of DMSO was adjusted to 1% in all samples. The enzyme reaction was stopped by addition of 10% trichloroacetic acid (final concentration). Samples were centrifuged in a microtiter plate at 4000 rpm for 10 min. Supernatants were applied to reverse phase HPLC on a Waters Symmetry C18 column, equipped with a Waters Sentry Guard column. Isocratic HPLC runs were performed at RT at a flow rate of 1 ml/min in acetonitrile:water 48:52 as running solvent. Radioactivity was monitored in the eluate by a Scintillation Analyzer. Total radioactivity for estrone and estradiol were determined in each sample and percent conversion of estrone to estradiol was calculated according to the following formula:
% conversion=100×{(cpm estradiol in sample with inhibitor)/[(cpm estrone in sample with inhibitor)+(cpm estradiol in sample with inhibitor)]}/{[(cpm estradiol in sample without inhibitor)/[(cpm estrone in sample without inhibitor)+(cpm estradiol in sample without inhibitor)]}.
(§1) Percent inhibition was calculated followingly: % inhibition=100−% conversion.

[2] = tested on: HSD1 enzyme that is expressed in rabbit placenta tissue; test: Inhibition of E1 to E2 conversion in rabbit placenta tissue homogenate; conditions: compound 100 nM, 30 nM estrone, 1 mM β-NADPH, 30 min
Experimental: The assay is based on an enzymatic reaction where HSD1 enzyme that is expressed in rabbit placenta tissue converts its natural substance estrone (E1) to estradiol (E2) in the presence of a co-factor β-NADPH.
Homogenization of rabbit placenta tissue: Weight a piece of the frozen tissue into a Precellys ck28 bead tube. Add buffer solution (20 mM KH2PO4 with 1 mM EDTA, pH 7.4) in 1:2 ratio (e.g. 300 mg of tissue:600 μl reaction buffer solution). Insert the bead tubes to homogenizer and homogenize 2×30 s. 6000 rpm.
Centrifugated 5 min., 2600 rpm at +4° C. and collect supernatant. Aliquots of homogenate are stored in −80° C.
Assay—Inhibition of E1 to E2 conversion in rabbit placenta tissue: The reaction takes place in a buffer solution (20 mM KH2PO4 with 1 mM EDTA, pH 7,4), including appropriate amount of rabbit placenta homogenate, co-factor (1 mM β-NADPH), Substrate (30 nM estrone), labelled substrate as tracer (5 nM [^3H]-estrone), and the potential inhibitor at concentrations 1 μM or 0.1 μM. Inhibitor stock solutions were prepared in DMSO. Final concentration of DMSO was adjusted to 1% in all samples. During a 30-minute incubation part of the estrone is converted to estradiol. The reaction is stopped by lowering the pH to 1 with 10% trichloro acetic acid (TCA). The substrate and conversion products are analyzed by HPLC and a Scintillation counter analyzer. Total radioactivity for estrone and estradiol were determined in each sample and percent conversion of estrone to estradiol was calculated according to the following formula:
% conversion=100×{(cpm estradiol in sample with inhibitor)/[(cpm estrone in sample with inhibitor)+(cpm estradiol in sample with inhibitor)]}/{(cpm estradiol in sample without inhibitor)/[(cpm estrone in sample without inhibitor)+(cpm estradiol in sample without inhibitor)]}.
as §1

[3] = target: T2, recombinant human 17β-HSD2 (Homo sapiens, UniProt P37059); test: Inhibition of recombinant human 17β-HSD2 (estradiol to estrone conversion, HPLC/radioactivity); conditions: compound 1 μM; 50 nM estradiol, 1 mM NADH, 30 min RT
T2 construct: made in house; host or cells: Sd9 (Sf9) insect cells, baculovirus (Bac to Bac Expression System)
T2 sequence (P37059 1-387): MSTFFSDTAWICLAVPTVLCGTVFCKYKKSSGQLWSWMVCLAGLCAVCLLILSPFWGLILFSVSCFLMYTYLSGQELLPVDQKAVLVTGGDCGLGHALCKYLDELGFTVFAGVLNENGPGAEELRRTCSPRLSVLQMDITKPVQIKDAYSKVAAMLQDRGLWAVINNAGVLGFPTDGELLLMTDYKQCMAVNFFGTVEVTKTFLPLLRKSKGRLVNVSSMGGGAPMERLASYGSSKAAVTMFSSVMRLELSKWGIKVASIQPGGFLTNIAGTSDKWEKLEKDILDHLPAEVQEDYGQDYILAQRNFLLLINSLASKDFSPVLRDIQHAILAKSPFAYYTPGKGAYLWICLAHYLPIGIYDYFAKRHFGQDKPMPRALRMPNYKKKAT
Experimental: 17β-HSD2 production and isolation: Similarly to 173-HSD1 the Recombinant baculovirus was generated by the “Bac to Bac Expression System” (Invitrogen). Recombinant bacmid was transfected to Sd9 insect cells using “Cellfectin Reagent” (Invitrogen). 60 h later cells were harvested and supernatant were fractionated by the following protocol: • cells were dissolved into 40 ml of A-buffer (40 mM TRIS, pH8.0, 20% glycerol, 20 μM NAD, 0.4 mM PMSF, 150 mM NaCl, 0.5% dodecyl-β-maltoside+protease inhibitor cocktail) • cells were sonicated • lysate was incubated on ice for 15 min • lysate was centrifuged 5000 rpm 15 min, +4° C. • centrifugation of the supernatant 180 000 g 30 min, +4° C. • pellet was dissolved into 8 ml of A-buffer • not resuspended material was removed by centrifugation 5000 rpm 15 min, +4° C. • the clear supernatant was divided into 100 μl aliquots and were stored frozen until determination of enzymatic activity.
The amount of 173-HSD2 was analysed by immunoblotting and total protein concentration of each extract batch was determined.
Assay—Inhibition of recombinant human 17β-HSD2: Recombinant protein (4 μg/ml) was incubated in 20 mM KH2PO4 pH 8.5 with 50 nM estradiol (including 800 000 cpm/ml of ^3H-estradiol) and 1 mM NADH for 30 min at RT, in the presence of the potential inhibitor at concentrations 1 μM or 0.1 μM. Inhibitor stock solutions were prepared in DMSO. Final concentration of DMSO was adjusted to 1% in all samples. The enzyme reaction was stopped by addition of 10% trichloroacetic acid (final concentration). Samples were centrifuged in a microtiter plate at 4000 rpm for 10 min. Supernatants were applied to reverse phase HPLC on a Waters Symmetry C18 column, equipped with a Waters Sentry Guard column. Isocratic HPLC runs were performed at RT at a flow rate of1 ml/min in acetonitrile:water 48:52 as running solvent. Radioactivity was monitored in the eluate by a Scintillation Analyzer. Total radioactivity for estrone and estradiol were determined in each sample and percent conversion of estradiol to estrone was calculated according to the following formula:
% conversion=100×{(cpm estrone in sample with inhibitor)/[(cpm estradiol in sample with inhibitor)+(cpm estrone in sample with inhibitor)]}/{[(cpm estrone in sample without inhibitor)/[(cpm estradiol in sample without inhibitor)+(cpm estrone in sample without inhibitor)]}.
as §1

| SMILES | inhibition at 0.1 µM [1] [%] | Rabbit placenta inhibition % @100 nM [2] [%] | inhibition at 1 µM [3] [%] |
| --- | --- | --- | --- |
| Cc1ccc(NC(=O)CC[C@@H]2c3c[nH]nc3[C@@]3(C)CCC4c5ccc(F)cc5CCC4C23)nn1 (stereo partly drawn) [Compound 111, 3-((8aS,12S)-4-fluoro-8a-methyl-1,2,6b,7,8,8a,10,12,12a,12b-decahydronaphtho[2′,1′:4,5]indeno[1,2-c]pyrazol-12-yl)-N-(6-methylpyridazin-3-yl)propanamide] | 48 | 55 | 1 |
| C[C@]12CCC3c4ccc(F)cc4CCC3C1[C@H](CCC(=O)Nc1cccnn1)c1c[nH]nc12 (stereo partly drawn) [Compound 114, 3-((8aS,12S)-4-fluoro-8a-methyl-1,2,6b,7,8,8a,10,12,12a,12b-decahydronaphtho[2′,1′:4,5]indeno[1,2-c]pyrazol-12-yl)-N-(pyridazin-3-yl)propanamide] | 53 | 43 | -1 |
| C[C@]12CCC3c4ccc(F)cc4CCC3C1[C@H](CCC(=O)Nc1cnccn1)c1c[nH]nc12 (stereo partly drawn) [Compound 120, 3-((8aS,12S)-4-fluoro-8a-methyl-1,2,6b,7,8,8a,10,12,12a,12b-decahydronaphtho[2′,1′:4,5]indeno[1,2-c]pyrazol-12-yl)-N-(pyrazin-2-yl)propanamide] | 67 | 34 | 4 |
| C[C@]12CCC3c4ccc(Cl)cc4CCC3C1[C@H](CCC(=O)Nc1cc(F)ccn1)c1c[nH]nc12 (stereo partly drawn) [Compound 129, 3-((8aS,12S)-4-chloro-8a-methyl-1,2,6b,7,8,8a,10,12,12a,12b-decahydronaphtho[2′1′:4,5]indeno[1,2-c]pyrazol-12-yl)-N-(4-fluoropyridin-2-yl)propanamide] | 84 | 28 | 8 |
| C[C@]12CCC3c4ccc(Cl)cc4CCC3C1[C@H](CCC(=O)Nc1cccc(F)n1)c1c[nH]nc12 (stereo partly drawn) [Compound 135, 3-((8aS,12S)-4-chloro-8a-methyl-1,2,6b,7,8,8a,10,12,12a,12b-decahydronaphtho[2,1′:4,5]indeno[1,2-c]pyrazol-12-yl)-N-(6-fluoropyridin-2-yl)propanamide] | 86 | 31 | 2 |
| C[C@]12CCC3c4ccccc4CCC3C1[C@H](CCC(=O)NC1CCOCC1)c1c[nH]nc12 (stereo partly drawn) [Compound 153, 3-((8aS,12S)-8a-methyl-1,2,6b,7,8,8a,10,12,12a,12b-decahydronaphtho[2′,1′:4,5]indeno[1,2-c]pyrazol-12-yl)-N-(tetrahydro-2H-pyran-4-yl)propanamide] | 85 | 10 | 4 |
| CN(CC1CC1)C(=O)CC[C@@H]1c2c[nH]nc2[C@@]2(C)CCC3c4ccccc4CCC3C12 (stereo partly drawn) [Compound 174, N-(cyclopropylmethyl)-N-methyl-3-((8aS,12S)-8a-methyl-1,2,6b,7,8,8a,10,12,12a,12b-decahydronaphtho[2′,1′:4,5]indeno[1,2-c]pyrazol-12-yl)propanamide] | 88 | 14 | 10 |
| C[C@]12CCC3c4ccccc4CCC3C1[C@H](CCC(=O)N1CCC3(CCOCC3)C1)c1c[nH]nc12 (stereo partly drawn) [Compound 177, 3-((8aS,12S)-8a-methyl-1,2,6b,7,8,8a,10,12,12a,12b-decahydronaphtho[2′,1′:4,5]indeno[1,2-c]pyrazol-12-yl)-1-(8-oxa-2-azaspiro[4.5]decan-2-yl)propan-1-one] | 89 | 16 | 4 |
| C[C@]12CCC3c4ccccc4CCC3C1[C@H](CCC(=O)N1Cc3ccccc3C1)c1c[nH]nc12 (stereo partly drawn) [Compound 180, 1-(isoindolin-2-yl)-3-((8aS,12S)-8a-methyl-1,2,6b,7,8,8a,10,12,12a,12b-decahydronaphtho[2′,1′:4,5]indeno[1,2-c]pyrazol-12-yl)propan-1-one] | 92 | 14 | 12 |
| CN(C)C(=O)c1ccc(NC(=O)CC[C@@H]2c3c[nH]nc3[C@@]3(C)CCC4c5ccccc5CCC4C23)nc1 (stereo partly drawn) [Compound 183, N,N-dimethyl-6-(3-((8aS,12S)-8a-methyl-1,2,6b,7,8,8a,10,12,12a,12b-decahydronaphtho[2′,1′:4,5]indeno[1,2-c]pyrazol-12-yl)propanamido)nicotinamide] | 91 | 50 | 10 |
